Biological target: EGFR (UniProt P00533)
Sequence (P00533 whole entry, looked up): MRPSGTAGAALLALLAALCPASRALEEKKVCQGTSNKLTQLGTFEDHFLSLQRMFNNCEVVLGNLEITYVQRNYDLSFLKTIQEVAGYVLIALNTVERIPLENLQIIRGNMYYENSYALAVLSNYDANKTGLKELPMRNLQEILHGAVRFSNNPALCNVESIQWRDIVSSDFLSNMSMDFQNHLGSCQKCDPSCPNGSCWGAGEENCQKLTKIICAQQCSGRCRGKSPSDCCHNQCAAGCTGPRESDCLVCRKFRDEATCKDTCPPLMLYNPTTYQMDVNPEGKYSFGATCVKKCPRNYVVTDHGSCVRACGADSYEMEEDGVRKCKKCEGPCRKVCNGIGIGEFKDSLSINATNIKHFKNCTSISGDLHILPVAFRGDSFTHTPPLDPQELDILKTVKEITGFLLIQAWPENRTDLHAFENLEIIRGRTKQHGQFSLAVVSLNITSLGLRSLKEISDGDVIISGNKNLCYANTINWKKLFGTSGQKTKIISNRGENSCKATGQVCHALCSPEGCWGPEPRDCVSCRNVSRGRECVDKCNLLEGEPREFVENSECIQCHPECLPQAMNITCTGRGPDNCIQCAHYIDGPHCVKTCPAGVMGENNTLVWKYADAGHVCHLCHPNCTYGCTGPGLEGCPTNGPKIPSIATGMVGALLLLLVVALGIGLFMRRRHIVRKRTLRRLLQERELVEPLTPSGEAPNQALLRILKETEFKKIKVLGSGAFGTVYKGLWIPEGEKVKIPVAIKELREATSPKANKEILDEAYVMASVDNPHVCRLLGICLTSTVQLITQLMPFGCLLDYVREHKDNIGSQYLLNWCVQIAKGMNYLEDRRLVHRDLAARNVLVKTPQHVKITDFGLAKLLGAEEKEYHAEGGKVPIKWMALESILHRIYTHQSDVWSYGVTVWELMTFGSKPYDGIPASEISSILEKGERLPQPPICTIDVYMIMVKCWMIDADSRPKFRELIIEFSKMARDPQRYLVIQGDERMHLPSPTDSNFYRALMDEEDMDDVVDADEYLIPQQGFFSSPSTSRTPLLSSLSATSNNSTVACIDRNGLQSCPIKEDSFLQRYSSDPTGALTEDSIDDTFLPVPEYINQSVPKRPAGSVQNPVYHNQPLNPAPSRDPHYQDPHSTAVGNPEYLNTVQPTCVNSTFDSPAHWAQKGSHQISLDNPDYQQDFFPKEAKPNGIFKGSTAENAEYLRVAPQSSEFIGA

IC50 | Structure (SMILES)
< 50 nM | COc1cc2c(Nc3ccc(Cl)c(Cl)c3)ncnc2cc1OCCC1CN(C)CC(C)(C)O1 (stereo not given)
< 50 nM | COc1cc2c(Nc3ccc(Cl)c(Cl)c3)ncnc2cc1OCC1CN(CC2CCCCO2)CCO1 (stereo not given)
< 50 nM | COc1cc2c(Nc3ccc(Cl)c(Cl)c3)ncnc2cc1OCc1csc(C2CCCN(C)C2)n1 (stereo not given)
< 50 nM | COc1cc2c(Nc3ccc(Cl)c(Cl)c3)ncnc2cc1OCC1CN(C2CCN(C)CC2)CCO1 (stereo not given)
< 50 nM | COc1cc2c(Nc3ccc(Br)c(Cl)c3)ncnc2cc1O[C@H]1CO[C@@H]2[C@H]1OC[C@@H]2S(C)(=O)=O
< 50 nM | COc1cc2c(Nc3ccc(Cl)c(Cl)c3)ncnc2cc1OC1C[C@@H]2CN(C)C[C@@H]2C1 (stereo not given in full)
< 50 nM | CCCCC(CC)C(=O)N1CCOC(COc2cc3ncnc(Nc4ccc(Cl)c(Cl)c4)c3cc2OC)C1 (stereo not given)
< 50 nM | COc1cc2c(Nc3ccc(Cl)c(Cl)c3)ncnc2cc1OCc1nc(N2CCN(C(=O)OC(C)(C)C)CC2)no1
< 50 nM | COc1cc2c(Nc3ccc(Cl)c(Cl)c3)ncnc2cc1OCc1nc2c(s1)CNCC2
< 50 nM | COc1cc2c(Nc3ccc(Br)c(Cl)c3F)ncnc2cc1OCC1CN(C)CCO1 (stereo not given)
< 50 nM | COc1cc2c(Nc3ccc(F)c(Cl)c3F)ncnc2cc1OC[C@H]1C[C@@H]2CN(C)C[C@@H]2C1
< 50 nM | COc1cc2c(Nc3ccc(Cl)c(Cl)c3)ncnc2cc1OCC1CN(C(=O)CC(=O)O)CCO1 (stereo not given)
< 50 nM | COc1cc2c(Nc3ccc(N4CCN(C)CC4)cc3)ncnc2cc1O[C@H]1CO[C@@H]2[C@H]1OC[C@@H]2F
< 50 nM | COc1cc2c(Nc3ccc(Cl)c(Cl)c3)ncnc2cc1OCC1CN(CCC2CCCCC2)CCCO1 (stereo not given)
< 50 nM | COc1cccc(CC(=O)N2CCOC(COc3cc4ncnc(Nc5ccc(Cl)c(Cl)c5)c4cc3OC)C2)c1 (stereo not given)
< 50 nM | COc1cc2c(Nc3cccc(Cl)c3F)ncnc2cc1O[C@H]1CO[C@@H]2[C@H]1OC[C@@H]2F
< 50 nM | COc1cc2c(Nc3c(F)cc(F)cc3Br)ncnc2cc1O[C@@H]1CO[C@@H]2[C@H]1OC[C@H]2F
< 50 nM | COc1cc2c(Nc3cc(Cl)c(Cl)cc3F)ncnc2cc1OC[C@@H]1CN2CCC[C@H]2CO1
< 50 nM | COc1cc(Nc2ncnc3cc(O[C@@H]4CO[C@@H]5[C@H]4OC[C@H]5F)c(OC)cc23)c(OC)cc1Cl
< 50 nM | COc1cc2c(Nc3ccc(Cl)c(Cl)c3)ncnc2cc1OCc1csc(C2CCNCC2)n1
< 50 nM | COc1cc2c(Nc3ccc(F)c(Cl)c3)ncnc2cc1OCC1CN(C)CCO1 (stereo not given)

IC50 | Structure (SMILES)
< 50 nM | COc1cc2c(Nc3ccc(Cl)c(Cl)c3)ncnc2cc1OCC1CN(C(C)=N)CCCO1 (stereo not given)
50 to 1000 nM | CCCN1CCCOC(COc2cc3ncnc(Nc4ccc(Cl)c(Cl)c4)c3cc2OC)C1 (stereo not given)
< 50 nM | COc1cc2c(Nc3ccc(Cl)c(Cl)c3)ncnc2cc1OCC1CN(C(=O)c2ccc3c(c2)OCO3)CCO1 (stereo not given)
< 50 nM | COc1cc2c(Nc3cc(F)c(Br)c(F)c3)ncnc2cc1OCC1CN(C)CCO1 (stereo not given)
< 50 nM | C=CCCCCCCN1CCOC(COc2cc3ncnc(Nc4ccc(Cl)c(Cl)c4)c3cc2OC)C1 (stereo not given)
< 50 nM | COc1cc2c(Nc3ccc(Cl)c(Cl)c3)ncnc2cc1OCc1nc(N2CCN(C)CC2)no1
< 50 nM | COc1cc2c(Nc3ccc(Cl)c(Cl)c3)ncnc2cc1OCC1CN(C(=O)CCC(C)C)CCO1 (stereo not given)
< 50 nM | CCN1CCCCC1c1nc(COc2cc3ncnc(Nc4ccc(Cl)c(Cl)c4)c3cc2OC)no1 (stereo not given)
< 50 nM | COc1ccc(OC)c(Nc2ncnc3cc(O[C@@H]4CO[C@@H]5[C@H]4OC[C@H]5F)c(OC)cc23)c1
< 50 nM | COc1cc2c(Nc3ccc(Br)c(Cl)c3F)ncnc2cc1OCC1CN(C)C(C)(C)CO1 (stereo not given)
< 50 nM | COc1cc2c(Nc3ccc(F)c(F)c3F)ncnc2cc1O[C@@H]1CO[C@@H]2[C@H]1OC[C@H]2F
< 50 nM | COc1cc2c(Nc3ccc(Br)c(C)c3)ncnc2cc1OCC1CN(C)CCO1 (stereo not given)
< 50 nM | COc1cc2c(Nc3ccc(Br)c(Cl)c3Cl)ncnc2cc1OC[C@H]1CN2CCOC[C@H]2CO1
50 to 1000 nM | COc1cc2c(Nc3ccc(Cl)c(Cl)c3)ncnc2cc1OCc1csc2ccc(Cl)cc12
< 50 nM | COc1cc2c(Nc3cc(Cl)c(Cl)cc3F)ncnc2cc1OCC1CN(C)CCO1 (stereo not given)
< 50 nM | CC[C@@H](C)CN1CCOC(COc2cc3ncnc(Nc4ccc(Cl)c(Cl)c4)c3cc2OC)C1 (stereo not given in full)
< 50 nM | COc1cc2c(Nc3ccc(Cl)c(Cl)c3)ncnc2cc1OCCC1CN(C)C(C)(C)CO1 (stereo not given)
< 50 nM | COc1cc2c(Nc3ccc(Br)c(Cl)c3F)ncnc2cc1OC[C@@H]1CN2CCC[C@H]2C(=O)N1
< 50 nM | COc1cc2c(Nc3ccc(Cl)c(Cl)c3)ncnc2cc1OCC1CN(C(C)C)CCO1 (stereo not given)
< 50 nM | CCN1CCCCC1c1nc(COc2cc3ncnc(Nc4ccc(Cl)c(Cl)c4)c3cc2OC)cs1 (stereo not given)
< 50 nM | COc1cc2c(Nc3ccc(Cl)c(Cl)c3)ncnc2cc1OCC1CN(C(=O)CCc2ccccc2)CCO1 (stereo not given)

IC50 | Structure (SMILES)
< 50 nM | COc1cc2c(Nc3ccc(Br)c(Cl)c3F)ncnc2cc1OC[C@H]1CN2CCOC[C@H]2CO1
< 50 nM | COc1cc2c(Nc3ccc(Br)c(Cl)c3)ncnc2cc1O[C@H]1CO[C@H]2[C@@H]1OC[C@@H]2OC(F)F
< 50 nM | COc1cc2c(Nc3ccc(Br)c(Cl)c3Cl)ncnc2cc1OCC1CN(C)C(C)(C)CO1 (stereo not given)
< 50 nM | COc1cc2c(Nc3ccc(Cl)c(Cl)c3)ncnc2cc1OC1CCCC1
< 50 nM | COc1cc2c(Nc3ccc(Cl)c(Cl)c3)ncnc2cc1OCc1noc(OCc2ccccc2)n1
< 50 nM | COc1cc2c(Nc3ccc(Cl)c(Cl)c3F)ncnc2cc1OC[C@@H]1CN(C)CC(=O)N1C
< 50 nM | COc1cc2c(Nc3ccc(Cl)c(Cl)c3)ncnc2cc1OCCC1OCCCO1
< 50 nM | COc1cc2c(Nc3ccc(Cl)c(Cl)c3)ncnc2cc1OCC1CN(CCC2OCCCO2)CCO1 (stereo not given)
< 50 nM | COc1cc2c(Nc3ccc(Br)c(Cl)c3Cl)ncnc2cc1OC[C@@H]1CN2CCOC[C@H]2CO1
< 50 nM | COc1cc2c(Nc3ccc(Br)c(Cl)c3)ncnc2cc1O[C@H]1CO[C@@H]2CCO[C@H]12
< 50 nM | COc1cc2c(Nc3ccc(Cl)c(Cl)c3)ncnc2cc1OCC1CN(S(=O)(=O)CCCCl)CCO1 (stereo not given)
< 50 nM | COc1cc2c(Nc3ccc(Cl)c(Cl)c3)ncnc2cc1OCC1CNCC(C)(C)O1 (stereo not given)
< 50 nM | COc1cc2c(Nc3ccc(Cl)c(Cl)c3)ncnc2cc1OCc1nc(CN2CCN(C)CC2)cs1
< 50 nM | COc1cc2c(Nc3ccc(Cl)c(Cl)c3)ncnc2cc1OCc1nc(-c2ccncc2)cs1
< 50 nM | C=CCCCCN1CCOC(COc2cc3ncnc(Nc4ccc(Cl)c(Cl)c4)c3cc2OC)C1 (stereo not given)
< 50 nM | COc1cc2c(Nc3ccc(Cl)c(Cl)c3F)ncnc2cc1OC[C@@H]1CN2CCCC[C@H]2C(=O)N1
< 50 nM | CCN1CCC(c2nc(COc3cc4ncnc(Nc5ccc(Cl)c(Cl)c5)c4cc3OC)no2)CC1
< 50 nM | COc1cc2c(Nc3cc(C)cc(C)c3)ncnc2cc1O[C@@H]1CO[C@@H]2[C@H]1OC[C@H]2F
< 50 nM | COc1cc2c(Nc3cc(C(F)(F)F)ccc3Br)ncnc2cc1O[C@@H]1CO[C@@H]2[C@H]1OC[C@H]2F
< 50 nM | COc1cc2c(Nc3ccc(Cl)c(Cl)c3)ncnc2cc1OCc1csc([C@@H]2CCCN2C)n1
< 50 nM | COc1cc2c(Nc3ccc(Cl)c(Cl)c3)ncnc2cc1OCC1CN(CC=C(C)C)CCO1 (stereo not given)

Structure (SMILES) | IC50
COc1cc2c(Nc3ccc(Cl)c(Cl)c3)ncnc2cc1OC1CC2CCC(C1)N2C (stereo not given) | < 50 nM
COc1cc2c(Nc3ccc(Cl)c(Cl)c3)ncnc2cc1OCC1CC2CCC(C1)N2C (stereo not given) | < 50 nM

Reference: the Kinase Knowledgebase extract (Sharma et al. 2016)
